System: HepG2 cells
Experiment: Cytotoxicity of RSSH donors, CCK-8 assay
Assay type: cell-based
Conditions: up to 200 μM, 24 h
Method: We next evaluated the effects of RSSH donors on DOX activity in three representative cancer cell lines: triple-negative breast cancer MDA-MB-468, ER-positive breast cancer MCF-7, and hepatocellular carcinoma HepG2.
Figure S22. Measurement of Cys-SH and GSH in cytoplasm (A, B) and mitochondria (C, D) of H9c2 cells treated with APT-1 (200 µM) APT-1-TPP (200 µM), or vehicle (0.01% DMSO in serum-free medium) for 2 h. Data are mean ± SEM (n = 3); *p ≤ 0.05, **p ≤ 0.01.
Cytotoxicity Assessment of Hydropersulfide Precursors in H9c2 and HepG2 cells Cell viability was measured using the Cell Counting Kit-8 (CCK-8, Dojindo).[7] […] The plates were then incubated for 1-2 h before measuring absorbance at 450 nm using a plate reader […]
calculated as: % Viability = 100 × [Abs₄₅₀ (treated cells) / Abs₄₅₀ (vehicle control)]. […]
Figure S23. […] Results are expressed as mean ± SEM, n≥3; *P<0.05, **P<0.01, ***P<0.001, ****P<0.0001. […]
Cytoprotective studies were performed as previously described.[8] […] The plates were then incubated for 1-2 h before measuring absorbance at […]
The relative % cell viability was calculated as 100 times the ratio of Abs450 (RSSH donor + DOX-exposed) to Abs450 (vehicle, non-DOX-exposed). […]
Basal sulfane sulfur levels were quantified using the fluorescent probe Sulfobiotics SSP4 (Dojindo, SB10) as previously described.[5] […]

| SMILES | cytotoxicity of donor alone |
| --- | --- |
| CC(=O)NC(C(=O)N(C)CCC[P+](c1ccccc1)(c1ccccc1)c1ccccc1)C(C)(C)SSC(=O)N(C)CCOC(C)=O (centres unmarked) [APT-1-TPP] | non-toxic |
| COC(=O)C(NC(C)=O)C(C)(C)SSC(=O)N(C)CCOC(C)=O (centres unmarked) [APT-1] | non-toxic |

Reference: PMC13224100, “Esterase-Responsive Mitochondria-Targeted Hydropersulfide Donors Mitigate Doxorubicin Cardiotoxicity While Preserving Anticancer Activity” (Angewandte Chemie (International ed. in English), 2025)
